In ChEMBL document CHEMBL1201862, “PubChem BioAssay data set” (2004):
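Step 1: Grow cells in 96-well plates. Step 2: Expose to compound for 48 hours at 5 concentrations. Step 3: Interpolate endpoints linearly; if unreached, use highest concentration. Abbreviation: GI50, concentration required for 50% inhibition of growth.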 Calls of active or inactive are those of the source. No stated cut-off is given here; in the data, active = GI50 up to about 1.1 µM and inactive = higher.

Key:
Assay in all cases: inhibition of tumour cell growth, NCI panel, 48 h
SW-620 = test system: SW-620
RXF 393 = test system: RXF 393
LOX IMVI = test system: LOX IMVI
SK-MEL-2 = test system: SK-MEL-2
HCC 2998 = test system: HCC 2998
EKVX = test system: EKVX
U-251 = test system: U-251
HOP-92 = test system: HOP-92
LXFL 529 = test system: LXFL 529
M14 = test system: M14
UACC-257 = test system: UACC-257
NCI-H460 = test system: NCI-H460
K562 = test system: K562
SF-268 = test system: SF-268
KM-20L2 = test system: KM-20L2
TK-10 = test system: TK-10
HOP-18 = test system: HOP-18
SK-MEL-28 = test system: SK-MEL-28
M19-MEL = test system: M19-MEL
UO-31 = test system: UO-31
HOP-62 = test system: HOP-62
SNB-78 = test system: SNB-78
COLO 205 = test system: COLO 205
HL-60 = test system: HL-60
A549 = test system: A549
HCT-116 = test system: HCT-116
SK-MEL-5 = test system: SK-MEL-5
OVCAR-3 = test system: OVCAR-3
HT-29 = test system: HT-29
NCI-H23 = test system: NCI-H23
MOLT-4 = test system: MOLT-4
DMS-114 = test system: DMS-114
OVCAR-5 = test system: OVCAR-5
ACHN = test system: ACHN
UACC-62 = test system: UACC-62
HCT-15 = test system: HCT-15
OVCAR-8 = test system: OVCAR-8
IGROV-1 = test system: IGROV-1
SF-539 = test system: SF-539
CCRF-CEM = test system: CCRF-CEM
SN12C = test system: SN12C
RPMI-8226 = test system: RPMI-8226
SNB-75 = test system: SNB-75
OVCAR-4 = test system: OVCAR-4
DMS-273 = test system: DMS-273
SR = test system: SR
KM12 = test system: KM12
SNB-19 = test system: SNB-19
Malme-3M = test system: Malme-3M
SK-OV-3 = test system: SK-OV-3
SF-295 = test system: SF-295
NCI-H226 = test system: NCI-H226
DLD-1 = test system: DLD-1
A498 = test system: A498
NCI-H522 = test system: NCI-H522
CAKI-1 = test system: CAKI-1
T47D = test system: T47D
DU-145 = test system: DU-145
MDA-MB-231 = test system: MDA-MB-231
NCI/ADR-RES = test system: NCI/ADR-RES
MCF7 = test system: MCF7
MDA-MB-435 = test system: MDA-MB-435
PC-3 = test system: PC-3
BT-549 = test system: BT-549
Hs-578T = test system: Hs-578T
786-0 = test system: 786-0
MDA-N = test system: MDA-N

Measured: GI50

Cc1cc(O)nc(NN2C(Cl)C(=O)C2c2cccc(Cl)c2)n1 (stereo unspecified)
inactive: SW-620 38 µM | RXF 393 8.18 µM | LOX IMVI 14.4 µM | SK-MEL-2 16.7 µM | HCC 2998 31.2 µM | EKVX 36.6 µM | U-251 30.5 µM | HOP-92 20.6 µM | LXFL 529 > 10 µM | M14 17.4 µM | UACC-257 32.8 µM | NCI-H460 18.4 µM | K562 17.6 µM | SF-268 18.5 µM | KM-20L2 32.9 µM | TK-10 36.1 µM | HOP-18 24 µM | SK-MEL-28 22.4 µM | M19-MEL 33.9 µM | UO-31 24.2 µM | HOP-62 27.1 µM | SNB-78 22.2 µM | COLO 205 > 10 µM | HL-60 16 µM | A549 47.8 µM | HCT-116 > 10 µM | SK-MEL-5 18.4 µM | OVCAR-3 12.5 µM | HT-29 23.4 µM | NCI-H23 20.1 µM | MOLT-4 13.8 µM | DMS-114 22.2 µM | OVCAR-5 58.2 µM | ACHN 30 µM | UACC-62 23.1 µM | OVCAR-8 31.1 µM | IGROV-1 14 µM | SF-539 17.2 µM | CCRF-CEM 6.49 µM | SN12C 20.5 µM | RPMI-8226 12.7 µM | SNB-75 20.8 µM | OVCAR-4 28.2 µM | DMS-273 17.1 µM | SR 16 µM | KM12 21.7 µM | SNB-19 27.9 µM
17.4 µM: HCT-15

O=Cc1ccccc1CCn1c(=O)c2cc3c(=O)n(CCc4ccccc4C=O)c(=O)c3cc2c1=O
> 100 µM: HCT-15
inactive: SW-620 > 100 µM | RXF 393 > 100 µM | LOX IMVI > 100 µM | SK-MEL-2 > 100 µM | U-251 > 100 µM | LXFL 529 > 100 µM | UACC-257 > 100 µM | NCI-H460 > 100 µM | Malme-3M > 100 µM | SK-OV-3 > 100 µM | K562 > 100 µM | SF-295 > 100 µM | SF-268 > 100 µM | TK-10 > 100 µM | NCI-H226 > 100 µM | DLD-1 > 100 µM | A498 > 100 µM | SK-MEL-28 > 100 µM | UO-31 > 100 µM | SNB-78 > 100 µM | HL-60 > 100 µM | A549 > 100 µM | HCT-116 > 100 µM | SK-MEL-5 > 100 µM | OVCAR-3 > 100 µM | HT-29 > 100 µM | NCI-H23 > 100 µM | MOLT-4 > 100 µM | DMS-114 > 100 µM | NCI-H522 > 100 µM | ACHN > 100 µM | UACC-62 > 100 µM | OVCAR-8 > 100 µM | IGROV-1 > 100 µM | SF-539 > 100 µM | CCRF-CEM > 100 µM | SN12C > 100 µM | SNB-75 > 100 µM | OVCAR-4 > 100 µM | DMS-273 > 100 µM | KM12 > 100 µM | SNB-19 > 100 µM

CC(C)OC(=O)c1ccc(CCC2=CC(=O)C(Br)=CC2=O)cc1
inactive: SW-620 15.5 µM | RXF 393 17.1 µM | CAKI-1 20.6 µM | T47D 19.6 µM | LOX IMVI 15.9 µM | SK-MEL-2 15.6 µM | HCC 2998 16.9 µM | EKVX 16.3 µM | U-251 15.6 µM | HOP-92 12.4 µM | M14 16.4 µM | UACC-257 13.2 µM | NCI-H460 20.7 µM | Malme-3M 15.7 µM | DU-145 23.7 µM | MDA-MB-231 17.2 µM | SK-OV-3 40.6 µM | K562 2.84 µM | SF-295 19.9 µM | SF-268 16 µM | TK-10 19.7 µM | NCI/ADR-RES 14.5 µM | NCI-H226 19.8 µM | MCF7 17.7 µM | MDA-MB-435 16.9 µM | PC-3 17 µM | A498 35.9 µM | SK-MEL-28 18.2 µM | UO-31 13.8 µM | HOP-62 29.6 µM | COLO 205 11.9 µM | HL-60 2.16 µM | BT-549 5.27 µM | Hs-578T 15.7 µM | A549 34.7 µM | HCT-116 16.7 µM | SK-MEL-5 12.8 µM | OVCAR-3 14.8 µM | HT-29 16.8 µM | 786-0 16.5 µM | NCI-H23 13.2 µM | MOLT-4 3.09 µM | OVCAR-5 22.1 µM | MDA-N 16.4 µM | NCI-H522 5.56 µM | ACHN 14.5 µM | UACC-62 17.5 µM | OVCAR-8 15.3 µM | IGROV-1 14.4 µM | SF-539 19.2 µM | SN12C 16.9 µM | RPMI-8226 7.26 µM | SNB-75 16.1 µM | OVCAR-4 5.75 µM | SR 3.82 µM | KM12 13 µM | SNB-19 15.3 µM
15.4 µM: HCT-15
active: CCRF-CEM 0.783 µM

NC(CCCCNCc1ccccc1O)C(=O)O (stereo unspecified)
> 100 µM: HCT-15
inactive: SW-620 > 100 µM | CAKI-1 > 100 µM | LOX IMVI > 100 µM | SK-MEL-2 > 100 µM | HCC 2998 > 100 µM | EKVX > 100 µM | U-251 > 100 µM | HOP-92 > 100 µM | LXFL 529 > 100 µM | M14 > 100 µM | UACC-257 > 100 µM | NCI-H460 > 100 µM | Malme-3M > 100 µM | SK-OV-3 > 100 µM | K562 > 100 µM | SF-295 > 100 µM | SF-268 > 100 µM | KM-20L2 > 100 µM | TK-10 > 100 µM | NCI-H226 > 100 µM | HOP-18 > 100 µM | DLD-1 > 100 µM | A498 > 100 µM | SK-MEL-28 > 100 µM | M19-MEL > 100 µM | UO-31 > 100 µM | HOP-62 > 100 µM | SNB-78 > 100 µM | COLO 205 > 100 µM | HL-60 > 100 µM | A549 > 100 µM | HCT-116 > 100 µM | SK-MEL-5 > 100 µM | OVCAR-3 > 100 µM | HT-29 > 100 µM | 786-0 > 100 µM | NCI-H23 > 100 µM | MOLT-4 > 100 µM | DMS-114 > 100 µM | OVCAR-5 > 100 µM | NCI-H522 > 100 µM | ACHN > 100 µM | UACC-62 > 100 µM | OVCAR-8 > 100 µM | IGROV-1 > 100 µM | SF-539 > 100 µM | CCRF-CEM > 100 µM | SN12C > 100 µM | RPMI-8226 > 100 µM | SNB-75 93.5 µM | OVCAR-4 > 100 µM | DMS-273 > 100 µM | KM12 > 100 µM | SNB-19 > 100 µM

CCc1cccc(C)c1NC(=O)CCc1n[nH]c(=S)o1
inactive: SW-620 13.3 µM | CAKI-1 > 100 µM | HCC 2998 > 100 µM | EKVX > 100 µM | U-251 > 100 µM | HOP-92 > 100 µM | LXFL 529 > 100 µM | M14 > 100 µM | UACC-257 > 100 µM | NCI-H460 > 100 µM | Malme-3M > 100 µM | SK-OV-3 > 100 µM | K562 66.8 µM | SF-295 > 100 µM | SF-268 > 100 µM | KM-20L2 > 100 µM | TK-10 > 100 µM | NCI-H226 > 100 µM | HOP-18 > 100 µM | DLD-1 44.4 µM | A498 > 100 µM | SK-MEL-28 > 100 µM | M19-MEL > 100 µM | UO-31 > 100 µM | HOP-62 > 100 µM | SNB-78 > 100 µM | COLO 205 44.6 µM | HL-60 > 100 µM | HCT-116 16.1 µM | SK-MEL-5 > 100 µM | OVCAR-3 > 100 µM | HT-29 95.5 µM | 786-0 > 100 µM | NCI-H23 > 100 µM | MOLT-4 > 100 µM | OVCAR-5 > 100 µM | NCI-H522 > 100 µM | ACHN > 100 µM | UACC-62 > 100 µM | OVCAR-8 > 100 µM | IGROV-1 > 100 µM | SF-539 > 100 µM | CCRF-CEM > 100 µM | SN12C > 100 µM | RPMI-8226 21.6 µM | SNB-75 > 100 µM | OVCAR-4 > 100 µM | DMS-273 37.8 µM | KM12 > 100 µM | SNB-19 > 100 µM
55.1 µM: HCT-15
